Assay results published in patent US12433864B2, “5,6-diHETE lactone for treatment of microvascular dysfunction” (MIGAL GALILEE RESEARCH INSTITUTE LTD., priority 2019, dated 2025).

What was measured:
HUVEC = test: Calcium imaging, intracellular [Ca2+]i increase in HUVEC; assay type: cell-based, human
Experimental: HUVECs were plated onto 24-well plates and grown to 70% confluence. To monitor cytosolic Ca^2+ signals, cells were loaded with fluo-3 AM (4 μmol/L; Molecular Probes) and incubated for 40 min at 37° C. in complete medium that contained […] pluronic acid. After washing twice with HEPES buffer that contained (in mmol/L) 1.25 CaCl2, 5.5 D-glucose, 10 HEPES, 5 KCl, 0.5 MgCl2, and 140 NaCl (brought to pH 7.4 with NaOH); the plates were incubated at 37° C. for 15 additional minutes prior to fluorescence imaging. Fluorescence images were acquired every 1 s over the course of 5 min in cells treated with 4α-phorbol-12, 13-didecanoate (4α-PDD; a specific TRPV4 agonist; 10 μmol/L), 5,6-diHETE ((±)5,6-dihydroxy-8Z,11Z,14Z,17Z-eicosatetraenoic acid) 1, 5 lactone (0.01-5 μmol/L) and 5,6-diHETE (hydrolytic isomer of 5,6-EEQ; 2 and 5 μmol/L). The calculated ratio between maximal intensity (F1) and basal intensity (F0) was determine for each experiment and presented as Average±SD.
To investigate the effect of 5,6-diHETE ((±)5,6-dihydroxy-8Z,11Z,14Z,17Z-eicosatetraenoic acid) lactone on cytosolic [Ca^2+]i (FIG. 1), HUVECs were exposed to graded doses of 5,6-diHETE lactone (0.01-5 μmol/L) in ethanol/HEPES buffer, and the intracellular changes in [Ca^2+] were determined by the mean of fluoresces intensity. […] No significant differences in cytosolic [Ca^2+]i levels were detected beyond 0.5 μM lactone. Above this concentration the cytosolic [Ca^2+]i levels reach saturation.
These rapid pathways result in the reduction of epoxide concentrations, and thus, in a decrease in their activity. We therefore tested the ability of the hydrolyzed form compared to the unhydrolyzed form to increase intracellular calcium (FIG. 2).

rat mesenteric arteries = test: Relaxation of rat mesenteric arteries from NT and 5/6Nx rats (wire myograph); conditions: acetylcholine concentration response, n=7-13
[1] = system: Sprague-Dawley 5/6Nx rats; test: Direct blood pressure measurement in 5/6Nx rats after acute injection; assay type: in vivo, rat; conditions: 10 mg/kg i.v., given after the lactone
Experimental: Direct blood pressure measurements—For direct blood pressure (BP) evaluation, Sprague-Dawley 5/6Nx rats were deeply anesthetized by an injection of 87 mg/kg ketamine and 13 mg/kg xylazine (intramuscular) mixture. Next, the rats were instrumented with a venous line and an arterial line. Specifically, using 26G i.v. cannula (BD Neoflon, Helsinborg, Sweden) we punctured one of the tail veins, and installed the cannula. Next, 1 ml of saline heparin (500 IU/ml) mixture was administered to avoid blood clotting. Concomitantly, we installed the arterial line, after a neck incision we bluntly exposed the right carotid and ligated it distally. Then the artery was clamped proximally and incised between the ligation and the clamp. A 100 PE tube was advanced into the artery and tightened in it by second ligature aimed to avoid blood leakage, and then we removed the arterial clamp. The external tube was attached to a Luer stopcock valve, through which saline could be injected, blood withdrawn and to be connected to a pressure transducer.
Upon connecting and stabilization, signals were continuously sampled at a sampling rate of 200 samples/sec by the MPVS-300 system, recorded.
Basal BP was recorded for 10 min, after which time 0.5 ml 5,6-diHETE lactone (0.3 mg/kg and 3 mg/kg) dissolved in saline+DMSO (9:1) were injected through the venous line, and BP was recorded for additional 10 min after injection. For control, two distinct, known BP lowering agents were used consecutively, labetalol (10 mg/kg) a known a and p adrenergic inhibitor, and amlodipine (1.5 mg/kg) a calcium channel blocker (each by 0.5 ml venous injection). BP was recorded for additional 10 min after each injection. Specifically, after lactone effect recording labetalol was administered and 10 min later the amlodipine. We terminated the experiment by venous administration of 1M KCl overdose, until the heart stopped.

In the case of CC/C=C\C/C=C\C/C=C\C/C=C\CC(O)C(O)CCCC(=O)O (racemic) [5,6-diHETE, (±)5,6-dihydroxy-8Z,11Z,14Z,17Z-eicosatetraenoic acid], the “lowest concentration causing a significant [Ca2+] increase” value (HUVEC) is reported as 5 µmol/L and the “changes in cellular [Ca2+]i” value (HUVEC; 2 μmol/L) is reported as “not”.
In the case of CC(=O)OCC[N+](C)(C)C [Acetylcholine, acetylcholine, reference compound], the “% relaxation (relative to papaverine)” value (rat mesenteric arteries; 5/6Nx vessels) is reported as 63.2±15.6% and the “% relaxation (relative to papaverine)” value (rat mesenteric arteries; NT vessels) is reported as 94.8±5.5%.
In the case of CC(CCc1ccccc1)NCC(O)c1ccc(O)c(C(N)=O)c1 (centres unmarked) [labetalol, reference compound], the “percent reduction of SBP from baseline” value [1] is reported as “about 20%”.
